Some test systems named below: HCT-15 colon; T-47D breast; OVCAR-3 ovarian; EKVX NSCLC; OVCAR-5 ovarian; MDA-N; HOP-62 NSCLC; A498 renal; MCF7 breast.
Holding throughout (test): NCI anticancer screen, dose series, 48 h

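Each compound was tested at five concentrations against cells in 96-well plates for 48 hours. TGI: concentration producing complete growth inhibition.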

On to `O=C1/C(=C\c2ccc(Br)cc2)CCCc2ccccc21`, for which the TGI in the assay on HCT-15 colon is 24.8 µM; in the assay with T-47D breast, 50.6 µM; in the assay on OVCAR-3 ovarian, 65.1 µM; in the assay on EKVX NSCLC, 39 µM; in the assay on OVCAR-5 ovarian, over 100 µM; with MDA-N it was 47 µM. For the same compound, the results for the TGI in the assay on HOP-62 NSCLC, with A498 renal and with MCF7 breast were over 100 µM, 45.6 µM and over 100 µM, respectively.
In the case of `C[C@@H](C[C@H]1OC(C)(C)O[C@@H]1C(C)(C)O)[C@H]1CC=C2[C@]3(C)[C@H](O)C[C@H]4C(C)(C)[C@H](O)CC[C@]4(C)[C@H]3CC[C@]21C`, the TGI in the assay on HCT-15 colon was found to be 14.9 µM; with T-47D breast, 43.2 µM; in the assay on OVCAR-3 ovarian it was 15.4 µM; with EKVX NSCLC, 21.9 µM; in the assay on OVCAR-5 ovarian, 17.1 µM; with MDA-N it was 16.8 µM. Besides, the TGI in the assay on HOP-62 NSCLC was 20.7 µM; in the assay with A498 renal it was 18.5 µM; in the assay with MCF7 breast, 12.8 µM.
Consider `CC(C)(C)C(=O)Oc1ccc(/C=C/C(=O)c2ccc(OC(=O)C(C)(C)C)cc2)cc1`, for which the TGI in the assay with HCT-15 colon is over 100 µM; in the assay with T-47D breast it was over 100 µM; in the assay with OVCAR-3 ovarian, 72 µM; in the assay with EKVX NSCLC, over 100 µM; in the assay with OVCAR-5 ovarian it was over 100 µM; with MDA-N, over 100 µM. Besides, the TGI in the assay on HOP-62 NSCLC, in the assay on A498 renal and in the assay on MCF7 breast was over 100 µM each time.
Regarding `Cc1ccc2nc3n[nH]c(N)c3nc2c1`, the TGI with HCT-15 colon, in the assay with T-47D breast, in the assay on OVCAR-3 ovarian, in the assay on EKVX NSCLC, in the assay with OVCAR-5 ovarian and with MDA-N was over 100 µM each time. Moreover, the TGI with HOP-62 NSCLC, in the assay on A498 renal and in the assay on MCF7 breast was over 100 µM in each case.
Take `O=[N+]([O-])c1ccc(C2ON=C(c3ccccc3)N2C23CC4CC(CC(C4)C2)C3)cc1` (stereo not given): the TGI with HCT-15 colon, in the assay with T-47D breast, with OVCAR-3 ovarian, with EKVX NSCLC, with OVCAR-5 ovarian and in the assay on MDA-N was over 10 µM each time. The TGI in the assay with HOP-62 NSCLC, in the assay on A498 renal and with MCF7 breast was over 10 µM in each case.
Consider `N#Cc1c2ccc([N+](=O)[O-])cc2c(=O)n2c1[nH]c1ccc(C(F)(F)F)cc12`, for which the TGI in the assay with HCT-15 colon was over 100 µM; in the assay with T-47D breast, over 100 µM; with OVCAR-3 ovarian it was 83.4 µM; in the assay with EKVX NSCLC, over 100 µM; in the assay on OVCAR-5 ovarian, over 100 µM; in the assay on MDA-N, over 100 µM. For the same compound, the TGI was over 100 µM in the assay with HOP-62 NSCLC, over 48.8 µM with A498 renal and over 100 µM with MCF7 breast.
Turning to `Clc1ccc2c(NCCCCN3OC3c3ccccc3)ccnc2c1` (stereo not given), the TGI in the assay on HCT-15 colon came to 23.5 µM; with T-47D breast, 16.9 µM; in the assay on OVCAR-3 ovarian, 9.33 µM; in the assay on EKVX NSCLC it was 38 µM; with OVCAR-5 ovarian it was 29.8 µM; in the assay with MDA-N, 16.7 µM. Further, the TGI in the assay on HOP-62 NSCLC was found to be 10.9 µM; in the assay with A498 renal, 12.3 µM; in the assay on MCF7 breast, 17.5 µM.
With `COc1ccc(C2=[S+]C(c3ccccc3)(c3ccccc3)c3ccccc32)cc1`, the TGI with HCT-15 colon is 54.6 µM; in the assay with T-47D breast, 84.3 µM; in the assay with OVCAR-3 ovarian, 43.6 µM; in the assay with EKVX NSCLC it was over 100 µM; with OVCAR-5 ovarian, 49.5 µM; in the assay on MDA-N, 54.5 µM. In addition, the TGI was 79.3 µM in the assay on HOP-62 NSCLC, 44.6 µM in the assay with A498 renal and over 100 µM in the assay with MCF7 breast.
As to `CC(O)c1cc2c(s1)C(=O)c1c(C(C)O)csc1C2=O` (stereo not given), the TGI turned out to be 0.422 µM with HCT-15 colon; 0.667 µM in the assay on T-47D breast; 0.135 µM in the assay with OVCAR-3 ovarian; 1.13 µM in the assay with EKVX NSCLC; 1.35 µM in the assay on OVCAR-5 ovarian; 0.0483 µM in the assay with MDA-N. Moreover, the TGI in the assay on HOP-62 NSCLC was 0.439 µM; in the assay with A498 renal, 0.462 µM; in the assay on MCF7 breast, over 100 µM.
Consider `NC(=O)CSc1c2cc(O)ccc2nc2ccc(O)cc12`, for which the TGI in the assay with HCT-15 colon, in the assay on T-47D breast, in the assay on OVCAR-3 ovarian, with EKVX NSCLC, in the assay with OVCAR-5 ovarian and in the assay on MDA-N was over 10 µM each time. The TGI with HOP-62 NSCLC, with A498 renal and in the assay on MCF7 breast was over 10 µM in each case.
`N#Cc1c(Cl)c2cccnc2n2c1nc1ccccc12`: the TGI came out at 3.82 µM in the assay on HCT-15 colon; 4.79 µM with T-47D breast; 9.6 µM with OVCAR-3 ovarian; 14.9 µM in the assay on EKVX NSCLC; 44.8 µM with OVCAR-5 ovarian; 15.7 µM with MDA-N. Besides, the TGI is over 56.1 µM in the assay on HOP-62 NSCLC, 31.1 µM in the assay on A498 renal and over 25.1 µM in the assay on MCF7 breast.
On to `CCCCCCCCC/C=C1/CC(CO)(COC(=O)CC(C(C)C)C(C)C)OC1=O` (stereo not given), for which the TGI in the assay with HCT-15 colon turned out to be 29 µM; in the assay on T-47D breast, 19 µM; in the assay with OVCAR-3 ovarian, 27.6 µM; in the assay with EKVX NSCLC, 20.1 µM; in the assay with OVCAR-5 ovarian it was 24.6 µM; in the assay with MDA-N it was 18.3 µM. Moreover, the TGI in the assay on HOP-62 NSCLC is 17.4 µM; in the assay with A498 renal it was 12.6 µM; in the assay with MCF7 breast, 24.4 µM.
Consider `Nc1nccc(NCC2(CO)CC(OCc3ccccc3)C2)n1` (stereo not given), for which the TGI is over 100 µM in the assay on HCT-15 colon; 36.2 µM in the assay with T-47D breast; over 100 µM in the assay with OVCAR-3 ovarian; over 100 µM in the assay with EKVX NSCLC; over 100 µM in the assay with OVCAR-5 ovarian; over 100 µM in the assay with MDA-N. For the same compound, the TGI in the assay on HOP-62 NSCLC, in the assay on A498 renal and with MCF7 breast was over 100 µM throughout.
With `Clc1ccc(-c2cc(-c3cc4cc(Br)ccc4nc3Cl)on2)cc1`, the TGI was over 50 µM with HCT-15 colon; over 50 µM in the assay on T-47D breast; 30.7 µM in the assay on OVCAR-3 ovarian; 36.2 µM in the assay with EKVX NSCLC; over 50 µM with OVCAR-5 ovarian; 30.6 µM with MDA-N. Also, the results for the TGI in the assay with HOP-62 NSCLC, with A498 renal and in the assay on MCF7 breast were over 50 µM, 41.9 µM and 43.8 µM, respectively.
For the compound `C[C@H]1C2Cc3cc(O)ccc3[C@@]1(C)CCN2CCc1ccc(N)cc1`, the TGI with HCT-15 colon is 33.3 µM; with T-47D breast, over 100 µM; in the assay on OVCAR-3 ovarian, 47 µM; in the assay with EKVX NSCLC, over 100 µM; in the assay with OVCAR-5 ovarian it was over 100 µM; in the assay on MDA-N, 38.4 µM. The values for the TGI in the assay with HOP-62 NSCLC, in the assay with A498 renal and in the assay with MCF7 breast were 33.4 µM, over 100 µM and 28.4 µM, respectively.

The values are drawn from PubChem BioAssay (NCI).
